ChEMBL document CHEMBL5725783, “Substituted sulfonamide compounds” (2017)

Target: Transient receptor potential cation channel subfamily A member 1 (Homo sapiens, UniProt O75762)
Assay: Fluorescence Assay: IC50s (effective concentration) of compounds on the human TRPA1 channel were determined using a Hamamatsu FDSS fluorescence plate reader. CHO cells expressing human TRPA1 were plated into 384-well plates, incubated overnight at 37° C., and loaded with BD calcium indicator dye for 1 hr at 37° C. followed by 15 minutes at room temperature. The assay buffer was Hank's Balanced Salt Solution (HBSS) containing 20 mM HEPES (pH readjusted to 7.4) along with 0.02% BSA.Following dye load and plate cool down, compounds were added to the cells using the FDSS while monitoring fluorescence to determine whether any of the test compounds have TRPA1 agonist activity. Plates were then incubated with compound for 20 minutes at room temperature prior to adding agonist. Following this incubation, […] cinnamaldehyde was added to all wells of the plate and block of this cinnamaldehyde induced calcium influx was measured.

Chain of Transient receptor potential cation channel subfamily A member 1 (O75762 whole entry): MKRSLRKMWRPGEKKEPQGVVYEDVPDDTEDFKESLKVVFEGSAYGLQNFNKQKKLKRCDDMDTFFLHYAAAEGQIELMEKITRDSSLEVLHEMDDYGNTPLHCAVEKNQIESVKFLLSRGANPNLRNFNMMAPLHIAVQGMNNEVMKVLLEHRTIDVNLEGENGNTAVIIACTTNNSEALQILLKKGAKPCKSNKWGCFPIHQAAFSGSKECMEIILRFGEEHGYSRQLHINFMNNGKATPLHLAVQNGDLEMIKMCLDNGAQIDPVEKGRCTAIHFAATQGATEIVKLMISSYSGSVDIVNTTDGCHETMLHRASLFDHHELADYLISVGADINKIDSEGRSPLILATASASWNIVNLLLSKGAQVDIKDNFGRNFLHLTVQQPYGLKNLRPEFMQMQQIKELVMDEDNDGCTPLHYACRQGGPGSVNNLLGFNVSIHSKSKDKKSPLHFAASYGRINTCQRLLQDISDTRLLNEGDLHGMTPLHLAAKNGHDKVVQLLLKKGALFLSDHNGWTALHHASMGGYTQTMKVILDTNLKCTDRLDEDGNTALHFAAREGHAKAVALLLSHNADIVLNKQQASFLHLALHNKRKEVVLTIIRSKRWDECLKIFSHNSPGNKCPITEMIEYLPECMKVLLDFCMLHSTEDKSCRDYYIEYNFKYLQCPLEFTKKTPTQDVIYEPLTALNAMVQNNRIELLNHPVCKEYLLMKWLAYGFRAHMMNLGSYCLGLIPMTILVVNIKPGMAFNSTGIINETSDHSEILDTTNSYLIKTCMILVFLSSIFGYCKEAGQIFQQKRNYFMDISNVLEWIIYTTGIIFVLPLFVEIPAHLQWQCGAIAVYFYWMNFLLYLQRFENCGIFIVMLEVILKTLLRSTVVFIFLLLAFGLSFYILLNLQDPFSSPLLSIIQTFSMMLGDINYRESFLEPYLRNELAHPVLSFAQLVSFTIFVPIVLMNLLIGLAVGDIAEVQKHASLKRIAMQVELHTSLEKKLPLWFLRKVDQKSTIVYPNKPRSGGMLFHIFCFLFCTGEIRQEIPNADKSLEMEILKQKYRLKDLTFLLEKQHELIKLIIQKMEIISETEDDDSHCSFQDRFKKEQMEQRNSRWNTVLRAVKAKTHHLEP

Q: With `CC(C)N(CC(=O)NCc1cc(C2=CCC(C(F)(F)F)CC2)ncn1)S(=O)(=O)c1ccc(F)cc1` (stereo unspecified) as the molecule, how does the IC50 read?
A: 0.013 µM
